The text below walks through data of article PMC11173533, “Baicalin and Baicalein Enhance Cytotoxicity, Proapoptotic Activity, and Genotoxicity of Doxorubicin and Docetaxel in MCF-7 Breast Cancer Cells” (Molecules, 2024).

Structures are written as SMILES. Where “and” joins values, the source holds several entries; their conditions need not be identical. Identical values can stand only once.

For series [1], the system named is MCF-7 cells. Description: Flavonoid-drug combination index (MTT, CompuSyn) in MCF-7 cells. It is filed as cell-based, human. As for the experimental part:
(§1) The experiment with a non-constant combination of BLIN and BLEIN with DOX or DTX was carried out to determine the synergistic, additive, or antagonistic effect between investigated flavonoids and anticancer drugs. […] Subsequently, cell viability was determined by MTT assay. […] The results were presented as a combination index (CI).

Series [2] relates to HUVEC-ST cells. The series is described as follows: Flavonoid-drug combination index (MTT, CompuSyn) in HUVEC-ST cells. It is filed as cell-based, human. As for the experimental part: as §1
The next series relates to HUVEC. The arrangement: method as in Liu et al. [53]. The conditions noted are these: 50 µmol/L, 48 h; ref Liu et al. [53]; cited from earlier work.
Series [3] concerns MCF-7 cells. The series is described as follows: Mitochondrial membrane potential (JC-1) in MCF-7 cells. It is filed as cell-based, human. As for the experimental part:
(§2) Unless otherwise indicated, in experiments, cells were seeded at an appropriate density for the specific assay into 96-well plates or Petri dishes. They were then incubated in standard culture conditions, which included a temperature of 37 °C, 100% relative humidity, and a 5% CO2 incubator. […] After treatment, the cells were washed with PBS and, depending on the experiment, immediately used for measurement or cultured in a fresh medium for 24 or 48 h. Control cells were treated with a corresponding volume of PBS. Additional controls for solvents were also performed.
The mitochondrial membrane potential was measured with the membrane-permeant JC-1 fluorescent probe. […] Thus, the measurement of the ratio of JC-1 dimer to monomer fluorescence can be used for estimating changes in mitochondrial membrane potential (ΔΨm).
The cells were then incubated in complete darkness for 30 min at 37 °C. After incubation, the cells were washed to remove the dye and suspended in fresh HBSS solution. Finally, the fluorescence intensity was measured using a Cary Eclipse spectrofluorometer (Varian, Inc.) at λex/em = 475 nm/530 nm for monomers and at λex/em = 535 nm/590 nm for dimers. Subsequently, the ratio of the fluorescence intensities at 530 nm/590 nm was calculated. The mitochondrial potential in both cell lines was measured immediately after incubation with investigated compounds. The results are expressed as a percentage of the control, considered 100%.

The test system of series [4] is HUVEC-ST cells. The series is described as follows: Alkaline comet assay in HUVEC-ST cells. The conditions noted are these: doxorubicin IC50 + flavonoid IC50 preincubation, longest postincubation time (48 h). It is filed as cell-based, human. The protocol: as §2
The comet assay, also known as the single-cell gel electrophoresis assay, is a highly sensitive and versatile method for measuring single- and double-stranded DNA breaks. The assay uses an electric field to move negatively charged DNA fragments through an agarose gel. The amount of migration reflects the level of DNA damage in the cells.
The analysis was performed under alkaline conditions, according to the method of Singh et al., on cells immediately after the treatment and 24 or 48 h postincubation. A suspension of cells was mixed with low-melting-point agarose (LMP type XI) and spread onto a microscope glass slide previously coated with standard melting point agarose (NMP type I). After 2 h of cells lysis in a buffer containing (2.5 mol/L NaCl, 100 mmol/L Na2-EDTA, 10 mmol/L TRIS, 1% Triton X-100), DNA unwinding and electrophoresis were carried out in a buffer containing (1 mmol/L Na2-EDTA, 300 mmol/L NaOH) and (29 V, 30 mA). Before analysis, the slides were stained with DAPI solution (2 μg/mL). One hundred randomly chosen cells were analyzed on each slide using a fluorescence microscope Zeiss Axio Scope A1 (Carl Zeiss, Oberkochen, Germany) with a video camera connected to the image-analysis system Lucia-Comet v. 7.60 (Laboratory Imaging, Praha, Czech Republic).

Series [5] concerns MCF-7 cells. Description: Cytometric measurement of doxorubicin accumulation in MCF-7 cells. To be noted: 22 h preincubation with flavonoid IC50, after 20 min of drug. Format: cell-based, human. The protocol: The aromatic rings in the hydrophobic part of doxorubicin give the drug molecule fluorescent properties (λex = 490 nm, λem = 590 nm). Thus, the flow cytometric measurement of drug fluorescence inside the cells allows for the monitoring of its transport rate through the cell membrane. The increase in the intensity of drug fluorescence inside the cells is highly correlated with its accumulation.
The DOX was added to the cell suspension to achieve a final concentration equal to the IC50 value. During one hour of incubation (temp 37 °C) with the drug, samples for cytometric measurement were taken from the cell suspension after the first 5 min and then after every 10 min. Samples were analyzed using the flow cytometer LSR® II from Becton Dickinson (San Jose, CA, USA) using an argon laser with a wavelength of λ = 488 nm. Doxorubicin fluorescence intensity was calculated per single cell.

The subject of series [6] is HUVEC-ST cells. The series is described as follows: MTT cell viability assay on HUVEC-ST cells. It is filed as cell-based, human. To be noted: for Inhibitory concentration IC10 (reduces cell viability by 10%) / IC50: HUVEC-ST cell line, 24 h incubation, MTT; for Concentrations that significantly decreased cell viability: HUVEC-ST, 24 h incubation with flavonoid, p < 0.05 vs control; for IC50: Homo sapiens, read-out: Inhibitory concentration IC50 (reduces cell viability by 50%). The protocol: as §2
(§3) The principle of the method is a measurement of the absorbance of formazan, a product of the reduction of the water-soluble tetrazolium salt (MTT) by NADPH-dependent cellular oxidoreductases (mainly succinate dehydrogenase) in living cells. Formazan is insoluble in water and precipitates as purple crystals. The amount of formazan is proportional to the number of living and metabolically active cells.
(§4) After treatment, the cells were washed with PBS and cultured in a fresh medium for 48 h. Subsequently, the medium was aspirated, and an aliquot of 50 µL of 0.05 mg/mL MTT solution was added to each microplate well for 3 h. The formazan crystals were dissolved in dimethyl sulfoxide (DMSO), and the absorbance was measured at a wavelength of λ = 580 nm. The percentage of viable cells was calculated by comparing the absorbance value of the test samples to the absorbance value of the control, taking the absorbance of the control as 100%.

In series [7] the test system is MCF-7 cells. Description: MTT cell viability assay on MCF-7 cells. It is filed as cell-based, human. The conditions noted are these: for IC50: Homo sapiens, MCF7, read-out: Inhibitory concentration IC50 (reduces cell viability by 50%); for IC50 / Inhibitory concentration IC10 (reduces cell viability by 10%): MCF-7 cell line, 24 h incubation, MTT; for Concentrations giving statistically significant reduction in the number of living cells: MCF-7, 24 h incubation with flavonoid, p < 0.05 vs control; for Viable cells: MCF-7, doxorubicin 3 µmol/L after 22 h preincubation with flavonoid IC50. The protocol:
as §2, §3, §4

Setting [8] is: flavonoid IC10 22 h preincubation + DOX IC50 2 h.
Where [9] appears, read: flavonoid IC10 22 h preincubation + DTX IC50 2 h.
Setting [10] is: flavonoid IC50 22 h preincubation + DOX IC50 2 h.
Where [11] appears, read: flavonoid IC50 22 h preincubation + DTX IC50 2 h.
[12] abbreviates: doxorubicin IC50 after 22 h preincubation with flavonoid IC50.
[13] abbreviates: flavonoid IC50 alone 24 h, control = 100%.

Turning to `O=c1cc(-c2ccccc2)oc2cc(O)c(O)c(O)c12` [baicalein, 5,6,7-Trihydroxyflavone], the “Combination index (CI)” value came out at 1.073 in the series with MCF-7 cells [1] (setting [8]); 1.08 in the series with MCF-7 cells [1] (setting [9]); 0.3412 with MCF-7 cells [1] (setting [10]); 0.6276 in the series with MCF-7 cells [1] (setting [11]); 0.8721 in the series on HUVEC-ST cells [2] (setting [8]); 0.9611 in the series with HUVEC-ST cells [2] (setting [9]). Besides, the “Combination index (CI)” value in the series with HUVEC-ST cells [2] (setting [10]) was found to be 0.6801; in the series with HUVEC-ST cells [2] (setting [11]), 0.4428. The “Viable HUVECs, % of the control” value with HUVEC is given as 37% ± 3%. Moreover, the entries for the “Mitochondrial membrane potential ΔΨm, % of control” value with MCF-7 cells [3] (docetaxel IC50 after 22 h preincubation with flavonoid IC50), in the series with MCF-7 cells [3] (setting [12]) and with MCF-7 cells [3] (setting [13]) were 18%, 20% and 30%, respectively. The “DNA in the comet tail” value in the series on HUVEC-ST cells [4] was 5%. Also, the “Amount of doxorubicin in cells relative to cells not treated with flavonoids” value in the series on MCF-7 cells [5] is listed as “over two times higher”. The figures for the “Inhibitory concentration IC10 (reduces cell viability by 10%)” value in the series on HUVEC-ST cells [6] and in the series with MCF-7 cells [7] were 75 ± 1.8 µM and 9 ± 0.7 µM, respectively. Further, the “Concentrations that significantly decreased cell viability” value in the series with HUVEC-ST cells [6] is recorded as at least 56 µmol/L. Also, the values for the IC50 with HUVEC-ST cells [6] and with MCF-7 cells [7] were 115 ± 2.6 µM and 95 ± 4.8 µM, respectively. For the same compound, the “Concentrations giving statistically significant reduction in the number of living cells” value in the series with MCF-7 cells [7] is reported as at least 10 µmol/L. The compound further returned a Viable cells in the series on MCF-7 cells [7] of 10%.
In the case of `O=C(O)[C@H]1O[C@@H](Oc2cc3oc(-c4ccccc4)cc(=O)c3c(O)c2O)[C@H](O)[C@@H](O)[C@@H]1O` [baicalin, baicalein 7-O-β-D-glucuronide], the “Combination index (CI)” value with MCF-7 cells [1] (setting [8]) is 1.158; in the series with MCF-7 cells [1] (setting [9]), 0.9652; in the series on MCF-7 cells [1] (setting [10]) it was 0.6435; in the series with MCF-7 cells [1] (setting [11]), 0.5421; in the series on HUVEC-ST cells [2] (setting [8]), 2.915; with HUVEC-ST cells [2] (setting [9]) it was 0.9948. The “Combination index (CI)” value in the series with HUVEC-ST cells [2] (setting [10]) is 1.794; in the series on HUVEC-ST cells [2] (setting [11]), 3.1 and 3.137. Also, the “Viable HUVECs, % of the control” value with HUVEC is 61% ± 8%. In addition, the “Mitochondrial membrane potential ΔΨm, % of control” value in the series with MCF-7 cells [3] (setting [12]) amounted to 31%; with MCF-7 cells [3] (setting [13]) it was 30%. For the same compound, the “DNA in the comet tail” value in the series with HUVEC-ST cells [4] is on record as 3%. Moreover, the “Amount of doxorubicin in cells relative to cells not treated with flavonoids” value in the series on MCF-7 cells [5] is “over two times higher”. In addition, the “Inhibitory concentration IC10 (reduces cell viability by 10%)” value in the series with HUVEC-ST cells [6] came out at 101 ± 10.7 µM; in the series on MCF-7 cells [7], 36 ± 3.4 µM. Further, in the series on HUVEC-ST cells [6], the “Concentrations that significantly decreased cell viability” value was at least 112 µmol/L. Moreover, the IC50 with HUVEC-ST cells [6] is 167 ± 6.7 µM; with MCF-7 cells [7], 250 ± 10.5 µM. In addition, the “Concentrations giving statistically significant reduction in the number of living cells” value with MCF-7 cells [7] is recorded as at least 56 µmol/L. The same compound yielded a Viable cells in the series with MCF-7 cells [7] of 21%.
